# Measurements taken from patent publication US20160297833A1, “THIENOPYRIMIDINES AS MKNK1 AND MKNK2 INHIBITORS” (BAYER PHARMA AKTIENGESELLSCHAFT, priority 2013, published 2016).
# pIC50: −log10 of the molar value.
# Biological target: T1, human full-length MKNK1 (Homo sapiens, UniProt Q9BUB5, T385D)
# T1 construct: GST (N); purchased Carna Biosciences 02-145; host or cells: insect cells (baculovirus expression system)
# Test: MKNK1 kinase high ATP assay (TR-FRET)
# Type: biochemical
# Details: Table 1; MKNK1 kinase high ATP assay, 2 mM ATP; read-out: MKNK1 IC50
# Summary of the method: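 Full-length human MKNK1 (T385D) preincubated 15 min at 22 °C with compound in HEPES pH 7.5/MgCl2/DTT buffer; reaction with 2 mM ATP (final) and 0.06 μM biotinylated peptide (final), 30 min at 22 °C.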
# T1 sequence (Q9BUB5 1-424 isoform Q9BUB5-2 T344D): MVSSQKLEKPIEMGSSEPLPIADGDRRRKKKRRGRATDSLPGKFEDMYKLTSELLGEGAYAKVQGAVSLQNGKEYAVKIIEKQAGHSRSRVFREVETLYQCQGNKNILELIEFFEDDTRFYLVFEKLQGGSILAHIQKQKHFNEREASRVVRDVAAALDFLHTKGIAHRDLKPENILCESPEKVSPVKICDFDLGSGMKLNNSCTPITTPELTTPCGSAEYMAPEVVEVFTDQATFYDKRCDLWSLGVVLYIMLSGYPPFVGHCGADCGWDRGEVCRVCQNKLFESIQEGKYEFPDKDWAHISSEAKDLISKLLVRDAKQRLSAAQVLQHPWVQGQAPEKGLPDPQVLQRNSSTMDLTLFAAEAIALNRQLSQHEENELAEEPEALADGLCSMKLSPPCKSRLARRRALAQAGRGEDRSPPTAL
row,pIC50,Molecule
1,7.85,"C[C@H]1COCCN1C(=O)[C@H]1CCc2c(sc3ncnc(Nc4cc5cn[nH]c5cc4N4CCC(N(C)C)CC4)c23)C1 [Example 135, [(7S)-4-({6-[4-(Dimethylamino)piperidin-1-yl]-1H-indazol-5-yl}amino)-5,6,7,8-tetrahydro[1]benzothieno[2,3-d]pyrimidin-7-yl][(3S)-3-methylmorpholin-4-yl]methanone]"
2,7.32,"CN(C)C(=O)[C@H]1CCc2c(sc3ncnc(Nc4cc5cn[nH]c5cc4NCCNC(=O)OC(C)(C)C)c23)C1 [Example 244, tert-Butyl {2-[(5-{[(7S)-7-(dimethylcarbamoyl)-5,6,7,8-tetrahydro[1]benzothieno[2,3-d]pyrimidin-4-yl]amino}-1H-indazol-6-yl)amino]ethyl}carbamate]"
3,9.10,"COc1cc2[nH]ncc2cc1Nc1ncnc2sc3c(c12)CC[C@H](C(=O)N(C)C[C@@H](C)OC)C3 [Example 281, (7S)-4-[(6-Methoxy-1H-indazol-5-yl)amino]-N-[(2R)-2-methoxypropyl]-N-methyl-5,6,7,8-tetrahydro[1]benzothieno[2,3-d]pyrimidine-7-carboxamide]"
4,9.40,"COc1cc2[nH]ncc2cc1Nc1ncnc2sc3c(c12)CC[C@H](C(=O)N1CC[C@@H](N(C)C)C1)C3 [Example 179, [(3R)-3-(Dimethylamino)pyrrolidin-1-yl]{(7S)-4-[(6-methoxy-1H-indazol-5-yl)amino]-5,6,7,8-tetrahydro[1]benzothieno[2,3-d]pyrimidin-7-yl}methanone]"
5,9.52,"CCCN(C)C(=O)[C@H]1CCc2c(sc3ncnc(Nc4cc5cn[nH]c5cc4OC)c23)C1 [Example 97, (7S)-4-[(6-methoxy-1H-indazol-5-yl)amino]-N-methyl-N-propyl-5,6,7,8-tetrahydro[1]benzothieno[2,3-d]pyrimidine-7-carboxamide]"
6,9.30,"COc1cc2[nH]ncc2cc1Nc1ncnc2sc3c(c12)CC[C@H](C(=O)N1CCCC(F)C1)C3 (mixture of isomers) [Example 205, [(3RS)-3-fluoropiperidin-1-yl]{(7S)-4-[(6-methoxy-1H-indazol-5-yl)amino]-5,6,7,8-tetrahydro[1]benzothieno[2,3-d]pyrimidin-7-yl}methanone]"
7,8.42,"COCCN(C)C(=O)[C@H]1CCc2c(sc3ncnc(Nc4cc5cn[nH]c5cc4Br)c23)C1 [Example 238, (7S)-4-[(6-Bromo-1H-indazol-5-yl)amino]-N-(2-methoxyethyl)-N-methyl-5,6,7,8-tetrahydro[1]benzothieno[2,3-d]pyrimidine-7-carboxamide]"
8,7.96,"CN(CCC(F)(F)F)C(=O)[C@H]1CCc2c(sc3ncnc(Nc4ccc5[nH]ncc5c4)c23)C1 [Example 6, (7S)-4-(1H-Indazol-5-ylamino)-N-methyl-N-(3,3,3-trifluoropropyl)-5,6,7,8-tetrahydro[1]benzothieno[2,3-d]pyrimidine-7-carboxamide]"
9,8.92,"COC(=O)NC[C@@H](C)Oc1cc2[nH]ncc2cc1Nc1ncnc2sc3c(c12)CC[C@H](C(=O)N(C)C)C3 [Example 264, Methyl {(2R)-2-[(5-{[(7S)-7-(dimethylcarbamoyl)-5,6,7,8-tetrahydro[1]benzothieno[2,3-d]pyrimidin-4-yl]amino}-1H-indazol-6-yl)oxy]propyl}carbamate]"
10,9.70,"C[C@@H]1CN(C(=O)[C@H]2CCc3c(sc4ncnc(Nc5cc6cn[nH]c6cc5N(C)C)c34)C2)C[C@@H](C)O1 [Example 240, [(7S)-4-{[6-(Dimethylamino)-1H-indazol-5-yl]amino}-5,6,7,8-tetrahydro[1]benzothieno[2,3-d]pyrimidin-7-yl][(2R,6R)-2,6-dimethylmorpholin-4-yl]methanone]"
11,9.70,"CCOc1cc2[nH]ncc2cc1Nc1ncnc2sc3c(c12)CC[C@H](C(=O)N1CC(N(C)C)C1)C3 [Example 218, [3-(Dimethylamino)azetidin-1-yl]{(7S)-4-[(6-ethoxy-1H-indazol-5-yl)amino]-5,6,7,8-tetrahydro[1]benzothieno[2,3-d]pyrimidin-7-yl}methanone]"
12,9.52,"COc1cc2[nH]ncc2cc1Nc1ncnc2sc3c(c12)CC[C@H](C(=O)N1C[C@H]2C[C@@H]1CN2C)C3 [Example 121, {(7S)-4-[(6-Methoxy-1H-indazol-5-yl)amino]-5,6,7,8-tetrahydro[1]benzothieno[2,3-d]pyrimidin-7-yl}[(1R,4R)-5-methyl-2,5-diazabicyclo[2.2.1]hept-2-yl]methanone]"
13,8.41,"CN(CC(C)(C)O)C(=O)[C@H]1CCc2c(sc3ncnc(Nc4ccc5[nH]ncc5c4)c23)C1 [Example 18, (7S)—N-(2-Hydroxy-2-methylpropyl)-4-(1H-indazol-5-ylamino)-N-methyl-5,6,7,8-tetrahydro[1]benzothieno[2,3-d]pyrimidine-7-carboxamide]"
14,7.67,"CCN(CCOC)C(=O)[C@H]1CCc2c(sc3ncnc(Nc4cc5cn[nH]c5cc4N4CCC(N(C)C)CC4)c23)C1 [Example 157, (7S)-4-({6-[4-(Dimethylamino)piperidin-1-yl]-1H-indazol-5-yl}amino)-N-ethyl-N-(2-methoxyethyl)-5,6,7,8-tetrahydro[1]benzothieno[2,3-d]pyrimidine-7-carboxamide]"
15,9.52,"CCOc1cc2[nH]ncc2cc1Nc1ncnc2sc3c(c12)CC[C@H](C(=O)N1C[C@@H](O)[C@H](O)C1)C3 [Example 75, [(3R,4R)-3,4-Dihydroxypyrrolidin-1-yl]{(7S)-4-[(6-ethoxy-1H-indazol-5-yl)amino]-5,6,7,8-tetrahydro[1]benzothieno[2,3-d]pyrimidin-7-yl}methanone]"
16,9.52,"CCOc1cc2[nH]ncc2cc1Nc1ncnc2sc3c(c12)CC[C@H](C(=O)N1C[C@@H](C)O[C@@H](C)C1)C3 [Example 167, [(2R,6S)-2,6-dimethylmorpholin-4-yl]{(7S)-4-[(6-ethoxy-1H-indazol-5-yl)amino]-5,6,7,8-tetrahydro[1]benzothieno[2,3-d]pyrimidin-7-yl}methanone]"
17,9.70,"COc1cc2[nH]ncc2cc1Nc1ncnc2sc3c(c12)CC[C@H](C(=O)N1CC[C@H](N(C)C)C1)C3 [Example 45, [(3S)-3-(Dimethylamino)pyrrolidin-1-yl]{(7S)-4-[(6-methoxy-1H-indazol-5-yl)amino]-5,6,7,8-tetrahydro[1]benzothieno[2,3-d]pyrimidin-7-yl}methanone]"
18,9.00,"COc1cc2[nH]ncc2cc1Nc1ncnc2sc3c(c12)CC[C@H](C(=O)N(C)C)C3 [Example 20, (7S)-4-[(6-Methoxy-1H-indazol-5-yl)amino]-N,N-dimethyl-5,6,7,8-tetrahydro[1]benzothieno[2,3-d]pyrimidine-7-carboxamide]"
19,9.15,"CCOc1cc2[nH]ncc2cc1Nc1ncnc2sc3c(c12)CC[C@H](C(=O)N1CC2(COC2)C1)C3 [Example 72, {(7S)-4-[(6-Ethoxy-1H-indazol-5-yl)amino]-5,6,7,8-tetrahydro[1]benzothieno[2,3-d]pyrimidin-7-yl}(2-oxa-6-azaspiro[3.3]hept-6-yl)methanone]"
20,8.00,"CCN(C)C(=O)[C@H]1CCc2c(sc3ncnc(Nc4cc5cn[nH]c5cc4N4CCC(N(C)C)CC4)c23)C1 [Example 158, (7S)-4-({6-[4-(Dimethylamino)piperidin-1-yl]-1H-indazol-5-yl}amino)-N-ethyl-N-methyl-5,6,7,8-tetrahydro[1]benzothieno[2,3-d]pyrimidine-7-carboxamide]"
21,9.22,"CCOc1cc2[nH]ncc2cc1Nc1ncnc2sc3c(c12)CC[C@H](C(=O)N(C)CC(F)F)C3 [Example 65, (7S)—N-(2,2-Difluoroethyl)-4-[(6-ethoxy-1H-indazol-5-yl)amino]-N-methyl-5,6,7,8-tetrahydro[1]benzothieno[2,3-d]pyrimidine-7-carboxamide]"
22,9.52,"CCOc1cc2[nH]ncc2cc1Nc1ncnc2sc3c(c12)CC[C@H](C(=O)N1CC[C@@H](N(C)C)C1)C3 [Example 190, [(3R)-3-(Dimethylamino)pyrrolidin-1-yl]{(7S)-4-[(6-ethoxy-1H-indazol-5-yl)amino]-5,6,7,8-tetrahydro[1]benzothieno[2,3-d]pyrimidin-7-yl}methanone]"
23,7.64,"CN(C)C1CCN(c2cc3[nH]ncc3cc2Nc2ncnc3sc4c(c23)CC[C@H](C(=O)N2C[C@H]3C[C@@H]2CO3)C4)CC1 [Example 154, [(7S)-4-({6-[4-(Dimethylamino)piperidin-1-yl]-1H-indazol-5-yl}amino)-5,6,7,8-tetrahydro[1]benzothieno[2,3-d]pyrimidin-7-yl][(1R,4R)-2-oxa-5-azabicyclo[2.2.1]hept-5-yl]methanone]"
24,7.84,"C[C@H](CNC(=O)OC(C)(C)C)Oc1cc2[nH]ncc2cc1Nc1ncnc2sc3c(c12)CC[C@H](C(=O)N(C)C)C3 [Example 259, tert-Butyl {(2R)-2-[(5-{[(7S)-7-(dimethylcarbamoyl)-5,6,7,8-tetrahydro[1]benzothieno[2,3-d]pyrimidin-4-yl]amino}-1H-indazol-6-yl)oxy]propyl}carbamate]"
25,9.22,"CC(C)Oc1cc2[nH]ncc2cc1Nc1ncnc2sc3c(c12)CC[C@H](C(=O)N1C[C@@H]2C[C@H]1CO2)C3 [Example 86, (1S,4S)-2-Oxa-5-azabicyclo[2.2.1]hept-5-yl[(7S)-4-{[6-(propan-2-yloxy)-1H-indazol-5-yl]amino}-5,6,7,8-tetrahydro[1]benzothieno[2,3-d]pyrimidin-7-yl]methanone]"

# Same assay, conditions: Table 3; example numbers of WO2013/174744(A1), not of this patent; pure enantiomer from chiral HPLC, absolute configuration at amide 'R or S'; read-out: MKNK1 IC50
row,pIC50,Molecule
1,7.93,"(7S)—N-Ethyl-4-(1H-indazol-5-ylamino)-N-methyl-5,6,7,8-tetrahydro[1]benzothieno[2,3-d]pyrimidine-7-carboxamide [Example 4]"

# Same assay, conditions: Table 3; example numbers of WO2013/174744(A1), not of this patent; pure enantiomer from chiral HPLC, absolute configuration at amide 'S or R'; read-out: MKNK1 IC50
row,pIC50,Molecule
1,8.19,"(7S)—N-Ethyl-4-(1H-indazol-5-ylamino)-N-methyl-5,6,7,8-tetrahydro[1]benzothieno[2,3-d]pyrimidine-7-carboxamide [Example 4]"

# Same assay, conditions: Table 3; example numbers of WO2013/174744(A1); ratio of the IC50 values of the two enantiomers
row,Activity Ratio MKNK1,Molecule
1,1.8,"(7S)—N-Ethyl-4-(1H-indazol-5-ylamino)-N-methyl-5,6,7,8-tetrahydro[1]benzothieno[2,3-d]pyrimidine-7-carboxamide [Example 4]"
